Source: patent US20120329736A1, “Treatment for gastrointestinal disorders using a selective, site-activated binding system” (priority 2011, published 2012)
In brackets after ≈: the same amount, converted by molar mass.

Columns and labels:
[1] = Hydrogen peroxide retention by extracts after desiccation and rehydration (colorimetric strips); assay type: physicochemical; conditions: dissolved in 35% hydrogen peroxide, heated at 80° C., desiccated, rehydrated
Procedure: In order to compare the samples provided above, a test series was prepared in 30 ml tubes containing from 1 g-10 g of the above extracts of Chinese Gall, Green Tea, Pomegranate and Resveratrol. Each was dissolved in 20 ml of 35% hydrogen peroxide then separate to two aliquots. One part was heated at 80° C. to a dark viscous semi-liquid and allowed to desiccate to a final volume of 5 ml. Each was rehydrated and serially diluted to detection range.

[2] = cited from earlier work
[3] = tested on: broad spectrum of bacteria, gram positive and gram negative; conditions: cited from earlier work

| Molecule | peroxide retention capability [1] | water solubility [2] | MIC performance compared to the binding system [3] |
| --- | --- | --- | --- |
| Oc1ccc(C=Cc2cc(O)cc(O)c2)cc1 [Resveratrol] | relatively less ability to form stable perhydrates | 3 µg/mL (≈ 13.1 µM) |  |
| RIFAXAMIN |  |  | performed poorly compared to the binding system |
